Source: US7235549B2, “Benzamide, heteroarylamide and reverse amides” (Pfizer Inc., priority 2001, dated 2007)

O=C(NCCc1ccccc1C(F)(F)F)c1cc(-n2ncc(=O)[nH]c2=O)ccc1Cl [Example 48, 2-Chloro-5-(3,5-dioxo-4,5-dihydro-3H-[1,2,4]triazin-2-yl)-N-[2-(2-trifluoromethyl-phenyl)-ethyl]-benzamide]
melting point: 148 to 150 °C
